Measurements reported in PMC9454456 (Journal of Nuclear Medicine, 2022).
Values belong to the molecule of their own block, whether it stands above or below them.

Assays:
physchem = format: physicochemical; conditions: pH 7.4
Experimental: The layers were separated by centrifugation at 2,000 rpm (416g) for 5 min. Aliquots of 100 μL were removed from each phase and measured in a Wizard γ-counter (PerkinElmer). Calculated logD7.4 values were expressed as the mean ± SD from 3 experiments.

NTR1 = biological target: T1, NTR1 (Homo sapiens, UniProt P30989); assay: Competitive receptor binding assay in NTR1-positive PC3 cells; conditions: 37 kBq tracer, NT 10^-8–10^2 μM as competitive inhibitor, 60 min, 37°C, γ-counter, mean ± SD, read-out: half-maximal inhibitory concentration
T1 construct: endogenous in cells; host or cells: PC3 human prostate adenocarcinoma cells
Experimental: After incubation for 60 min at 37°C, the medium of each well was removed and the cells were washed twice with PBS. The removed medium and washing PBS were collected to represent the amount of free radioligand. The adherent cells were lysed with NaOH (0.1 M, 200 μL) and harvested after being washed twice by PBS. Finally, the cell-bound radioactivity (3 × 10^5 cells/mL) and the amount of free radioligand were measured in a γ-counter. The half-maximal inhibitory concentration was calculated using GraphPad Prism software. […] The radioactivity of adherent cells (3 × 10^5 cells/mL) was then measured after they were extracted with NaOH (0.1 M, 200 μL) and washed twice with PBS.

in vivo [1] = assay: in vivo; design: species or system mice; conditions: mouse, iv, 3.4 MBq, total radioactivity, Biodistribution
Experimental: Blood and major organs were harvested immediately, weighed, and counted using a γ-counter. The radioactivity of each sample was calculated as the percentage of injected dose per gram of tissue (%ID/g) and corrected for radioactive decay.

PC3-xenografted mice [2] = conditions: mouse, in vivo
Experimental: (§1) Images were reconstructed using 3-dimensional ordered-subset expectation maximization with attenuation correction. Regions of interest were drawn over the tumors and main organs, and average signal levels in the regions were measured using an Inveon Research Workplace workstation.

in vivo [3] = conditions: mouse, iv, 7.4 MBq, total radioactivity
Experimental: as §1

PC3-xenografted mice [4] = assay: Small-animal PET/CT imaging, PC3 xenografts; conditions: PC3 xenograft, 7.4 MBq i.v., 1 h after injection, mean ± SD
Experimental: as §1

LNCap-xenografted mice = assay: Small-animal PET/CT imaging, LNCap xenografts; conditions: LNCap xenograft, 7.4 MBq i.v., 1 h after injection, mean ± SD
Experimental: as §1

T1 sequence (P30989 whole entry): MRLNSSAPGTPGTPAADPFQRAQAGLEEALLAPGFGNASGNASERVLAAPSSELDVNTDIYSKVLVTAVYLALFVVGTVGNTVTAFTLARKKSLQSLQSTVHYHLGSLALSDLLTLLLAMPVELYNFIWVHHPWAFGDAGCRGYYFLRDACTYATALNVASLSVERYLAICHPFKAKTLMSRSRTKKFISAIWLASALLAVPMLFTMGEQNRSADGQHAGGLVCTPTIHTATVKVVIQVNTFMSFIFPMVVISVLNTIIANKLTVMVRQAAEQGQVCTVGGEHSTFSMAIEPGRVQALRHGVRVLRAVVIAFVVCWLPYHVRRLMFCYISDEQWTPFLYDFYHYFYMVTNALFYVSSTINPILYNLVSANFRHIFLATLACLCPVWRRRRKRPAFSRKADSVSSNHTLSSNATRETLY

logD (physchem): -3.68 ± 0.14
IC50 (NTR1): 7.59 ± 0.41 nM
tissue uptake at 5 min (in vivo [1]; Blood): 8.11 ± 1.54 %ID/g
tissue uptake at 0.25 h (in vivo [1]; Blood): 4.15 ± 0.59 %ID/g
tissue uptake at 0.5 h (in vivo [1]; Blood): 2.56 ± 0.23 %ID/g
tissue uptake at 1 h (in vivo [1]; Blood): 1.12 ± 0.22 %ID/g
tissue uptake at 2 h (in vivo [1]; Blood): 0.43 ± 0.08 %ID/g
tissue uptake at 5 min (in vivo [1]; Bone): 2.27 ± 0.29 %ID/g
tissue uptake at 0.25 h (in vivo [1]; Bone): 2.35 ± 0.52 %ID/g
tissue uptake at 0.5 h (in vivo [1]; Bone): 1.27 ± 0.08 %ID/g
tissue uptake at 1 h (in vivo [1]; Bone): 0.86 ± 0.17 %ID/g
tissue uptake at 2 h (in vivo [1]; Bone): 0.53 ± 0.17 %ID/g
tissue uptake at 5 min (in vivo [1]; Brain): 1.91 ± 0.39 %ID/g
tissue uptake at 0.25 h (in vivo [1]; Brain): 1.35 ± 0.15 %ID/g
tissue uptake at 0.5 h (in vivo [1]; Brain): 0.88 ± 0.1 %ID/g
tissue uptake at 1 h (in vivo [1]; Brain): 0.6 ± 0.05 %ID/g
tissue uptake at 2 h (in vivo [1]; Brain): 0.33 ± 0.1 %ID/g
tissue uptake at 5 min (in vivo [1]; Fat): 1.42 ± 0.23 %ID/g
tissue uptake at 0.25 h (in vivo [1]; Fat): 1.11 ± 0.23 %ID/g
tissue uptake at 0.5 h (in vivo [1]; Fat): 0.62 ± 0.11 %ID/g
tissue uptake at 1 h (in vivo [1]; Fat): 0.32 ± 0.03 %ID/g
tissue uptake at 2 h (in vivo [1]; Fat): 0.32 ± 0.07 %ID/g
tissue uptake at 5 min (in vivo [1]; Heart): 7.7 ± 0.9 %ID/g
tissue uptake at 0.25 h (in vivo [1]; Heart): 3.88 ± 0.18 %ID/g
tissue uptake at 0.5 h (in vivo [1]; Heart): 2.78 ± 0.36 %ID/g
tissue uptake at 1 h (in vivo [1]; Heart): 1.57 ± 0.18 %ID/g
tissue uptake at 2 h (in vivo [1]; Heart): 0.58 ± 0.11 %ID/g
tissue uptake at 5 min (in vivo [1]; Intestine): 3.28 ± 0.3 %ID/g
tissue uptake at 0.25 h (in vivo [1]; Intestine): 2.31 ± 0.92 %ID/g
tissue uptake at 0.5 h (in vivo [1]; Intestine): 1.47 ± 0.26 %ID/g
tissue uptake at 1 h (in vivo [1]; Intestine): 0.77 ± 0.24 %ID/g
tissue uptake at 2 h (in vivo [1]; Intestine): 0.38 ± 0.04 %ID/g
tissue uptake at 5 min (in vivo [1]; Kidney): 18.4 ± 1.27 %ID/g
tissue uptake at 0.25 h (in vivo [1]; Kidney): 21.2 ± 1.95 %ID/g
tissue uptake at 0.5 h (in vivo [1]; Kidney): 23.1 ± 1.94 %ID/g
tissue uptake at 1 h (in vivo [1]; Kidney): 24.6 ± 0.98 %ID/g
tissue uptake at 2 h (in vivo [1]; Kidney): 26.1 ± 0.79 %ID/g
tissue uptake at 5 min (in vivo [1]; Liver): 5.46 ± 1.01 %ID/g
tissue uptake at 0.25 h (in vivo [1]; Liver): 3.17 ± 0.45 %ID/g
tissue uptake at 0.5 h (in vivo [1]; Liver): 2.02 ± 0.48 %ID/g
tissue uptake at 1 h (in vivo [1]; Liver): 1.44 ± 0.2 %ID/g
tissue uptake at 2 h (in vivo [1]; Liver): 0.86 ± 0.49 %ID/g
tissue uptake at 5 min (in vivo [1]; Lung): 5.18 ± 0.16 %ID/g
tissue uptake at 0.25 h (in vivo [1]; Lung): 3.28 ± 0.62 %ID/g
tissue uptake at 0.5 h (in vivo [1]; Lung): 1.91 ± 0.15 %ID/g
tissue uptake at 1 h (in vivo [1]; Lung): 1.2 ± 0.23 %ID/g
tissue uptake at 2 h (in vivo [1]; Lung): 0.75 ± 0.15 %ID/g
tissue uptake at 5 min (in vivo [1]; Muscle): 1.93 ± 0.65 %ID/g
tissue uptake at 0.25 h (in vivo [1]; Muscle): 1.44 ± 0.17 %ID/g
tissue uptake at 0.5 h (in vivo [1]; Muscle): 0.96 ± 0.08 %ID/g
tissue uptake at 1 h (in vivo [1]; Muscle): 0.51 ± 0.02 %ID/g
tissue uptake at 2 h (in vivo [1]; Muscle): 0.32 ± 0.04 %ID/g
tissue uptake at 5 min (in vivo [1]; Pancreas): 2.88 ± 0.61 %ID/g
tissue uptake at 0.25 h (in vivo [1]; Pancreas): 2.03 ± 0.26 %ID/g
tissue uptake at 0.5 h (in vivo [1]; Pancreas): 1.59 ± 0.6 %ID/g
tissue uptake at 1 h (in vivo [1]; Pancreas): 1.05 ± 0.07 %ID/g
tissue uptake at 2 h (in vivo [1]; Pancreas): 0.36 ± 0.04 %ID/g
tissue uptake at 5 min (in vivo [1]; Spleen): 3.97 ± 0.39 %ID/g
tissue uptake at 0.25 h (in vivo [1]; Spleen): 2.81 ± 0.47 %ID/g
tissue uptake at 0.5 h (in vivo [1]; Spleen): 1.85 ± 0.43 %ID/g
tissue uptake at 1 h (in vivo [1]; Spleen): 1.06 ± 0.27 %ID/g
tissue uptake at 2 h (in vivo [1]; Spleen): 0.41 ± 0.04 %ID/g
tissue uptake at 5 min (in vivo [1]; Stomach): 3.56 ± 0.31 %ID/g
tissue uptake at 0.25 h (in vivo [1]; Stomach): 2.49 ± 0.35 %ID/g
tissue uptake at 0.5 h (in vivo [1]; Stomach): 1.75 ± 0.38 %ID/g
tissue uptake at 1 h (in vivo [1]; Stomach): 0.91 ± 0.18 %ID/g
tissue uptake at 5 min (in vivo [1]; Testis): 1.62 ± 0.11 %ID/g
tissue uptake at 0.25 h (in vivo [1]; Testis): 1.31 ± 0.05 %ID/g
tissue uptake at 0.5 h (in vivo [1]; Testis): 0.8 ± 0.06 %ID/g
tissue uptake at 1 h (in vivo [1]; Testis): 0.42 ± 0.04 %ID/g
tissue uptake at 2 h (in vivo [1]; Testis): 0.31 ± 0.1 %ID/g
tissue uptake at 5 min (in vivo [1]; Tumor): 2.81 ± 0.39 %ID/g
tissue uptake at 0.25 h (in vivo [1]; Tumor): 3.93 ± 0.43 %ID/g
tissue uptake at 0.5 h (in vivo [1]; Tumor): 5.7 ± 0.8 %ID/g
tissue uptake at 1 h (in vivo [1]; Tumor): 6.26 ± 0.41 %ID/g
tissue uptake at 2 h (in vivo [1]; Tumor): 3.74 ± 0.56 %ID/g
tumor retention time (PC3-xenografted mice [2]): up to 4 h
tissue uptake at 0.5 h (in vivo [3]): 4.53 ± 1.26 %ID/g
Structure (SMILES): CC(=O)NC(CCCCNC(=O)CN1CCN(CC(=O)O)CCN(CC(=O)O)CCN(CC(=O)O)CC1)C(=O)N1CCCC1C(=O)N(C)C(CCCNC(=N)N)C(=O)NC(CCCNC(=N)N)C(=O)N1CCCC1C(=O)NC(Cc1ccc(O)cc1)C(=O)NC(C(=O)NC(CC(C)C)C(=O)O)C(C)(C)C (centres unmarked) [^68Ga-DOTA-NT-20.3, metal not drawn]

tumor uptake (PET region of interest) (PC3-xenografted mice [4]): 0.53 ± 0.05 %ID/g
tumor uptake (PET region of interest) (LNCap-xenografted mice): 8.60 ± 2.11 %ID/g
Structure (SMILES): O=C([O-])CN(CCN(CC(=O)[O-])Cc1cc(CCC(=O)NCCCCCC(=O)NCCCC[C@H](NC(=O)N[C@@H](CCC(=O)O)C(=O)O)C(=O)O)ccc1[O-])Cc1cc(CCC(=O)O)ccc1[O-].[68Ga+3].[OH3+] [^68Ga-PSMA-11]
